Consider four molecules from patent US12559529B2, “NPY2 receptor agonists” (Boehringer Ingelheim International GmbH, priority 2019, dated 2026).

In assay [1] the target is T1, Human Neuropeptide Y2 Receptor (Homo sapiens, UniProt P49146).
T1 construct: purchased CHEMICON HTS066M
T1 sequence (P49146 1-381): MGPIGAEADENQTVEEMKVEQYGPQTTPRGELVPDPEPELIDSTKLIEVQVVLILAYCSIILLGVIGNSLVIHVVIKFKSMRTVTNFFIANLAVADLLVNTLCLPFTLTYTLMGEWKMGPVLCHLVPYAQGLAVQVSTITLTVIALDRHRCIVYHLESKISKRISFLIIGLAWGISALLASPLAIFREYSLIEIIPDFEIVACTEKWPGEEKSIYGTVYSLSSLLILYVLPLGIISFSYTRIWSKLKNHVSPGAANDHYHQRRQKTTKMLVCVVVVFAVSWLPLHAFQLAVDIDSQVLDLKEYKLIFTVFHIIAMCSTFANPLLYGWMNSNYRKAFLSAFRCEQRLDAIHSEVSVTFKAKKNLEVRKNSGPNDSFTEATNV
The assay can be described thus: Radioligand binding competition assay (RLB). To be noted: Table 3; human 125I-PYY (1-36) 0.02 nM, Y2 receptor membranes; read-out: Ki. In short, it runs like this: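 IC50 values come from nonlinear regression of sigmoidal dose-response curves of filter-bound radioactivity. Peptides competed with radioligand at human Y2 receptor membranes (0.5 μg protein/well) for 2 h at room temperature in pH 7.4 HEPES buffer containing Mg2+, Ca2+ and 0.2% ovalbumin.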

For a further assay, the system named is normal NMRI mice. Kind of assay: Effect on acute food intake in normal NMRI mice. It is filed as in vivo. To be noted: male NMRI mice, 10 nmol/kg subcutaneously once. In short, it runs like this: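 A single 10 nmol/kg s.c. peptide dose was given 1 h before lights-off to male NMRI mice fasted from 6 h before the night phase (n=7-8). Intake was recorded continuously by microchip-identified HM-2 feeding channels. Values are normalized to vehicle controls (50 mM phosphate buffer pH7 with 5% Mannitol).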

The term Ki denotes the dissociation constant of the complex between target and ligand, obtained from inhibition or displacement. Regarding `CC[C@H](C)[C@H](NC(=O)[C@H](CCC(=O)O)NC(=O)[C@H](CCC(=O)O)NC(=O)[C@@H]1CCCN1C(=O)[C@H](CO)NC(=O)[C@H](C)NC(=O)[C@H](CC(=O)O)NC(=O)[C@H](CCC(=O)O)NC(=O)[C@H](CCC(=O)O)NC(=O)[C@@H]1CCCN1C(=O)[C@H](CCCCNC(=O)COCCOCCNC(=O)COCCOCCNC(=O)CC[C@H](NC(=O)CCCCCCCCCCCCCCCCC(=O)O)C(=O)O)NC(=O)[C@H](CCC(=O)O)NC(=O)[C@@H]1CCCN1C(=O)[C@H](C)NC(=O)CC(C)C)C(=O)N[C@@H](CCC(N)=O)C(=O)N[C@@H](CCCNC(=N)N)C(=O)N[C@@H](Cc1ccc(O)cc1)C(=O)N[C@@H](Cc1ccc(O)cc1)C(=O)N[C@H](C(=O)N[C@@H](CCC(=O)O)C(=O)N[C@@H](CC(C)C)C(=O)N[C@@H](CCCNC(=N)N)C(=O)N[C@@H](Cc1c[nH]cn1)C(=O)N[C@@H](Cc1ccc(O)cc1)C(=O)N[C@@H](Cc1ccc(O)cc1)C(=O)N[C@@H](CC(N)=O)C(=O)N[C@@H](Cc1c[nH]c2ccccc12)C(=O)N[C@@H](CC(C)C)C(=O)N[C@H](C(=O)N[C@@H](CCCNC(=N)N)C(=O)N[C@@H](CCC(N)=O)C(=O)N[C@@H](CCCNC(=N)N)C(=O)N[C@@H](Cc1ccc(O)cc1)C(N)=O)[C@@H](C)O)C(C)C` [Compound 9, N{alpha-4}-(3-methylbutanoyl)-N{epsilon-7}-[2-(2-{2-[2-(2-{2-[(4S)-4-carboxy-4-(17-carboxyheptadecanamido)butanamido]ethoxy}ethoxy)acetamido]ethoxy}ethoxy)acetamido]-[4A,7K,9E,17I,18Q,22V,23E,28Y,30W,31L]hPYY (4-36)], in assay [1], the Ki turned out to be 1.22 nM. Also, the “Acute Food Intake 24 h [% vehicle]” value in the assay with normal NMRI mice worked out at 44 % vehicle.

Take `CC(C)CC(=O)N[C@@H](C)C(=O)N1CCC[C@H]1C(=O)N[C@@H](CCC(=O)O)C(=O)N[C@@H](CCCCNC(=O)COCCOCCNC(=O)COCCOCCNC(=O)CC[C@H](NC(=O)CCCCCCCCCCCCCCCCC(=O)O)C(=O)O)C(=O)N1CCC[C@H]1C(=O)N[C@@H](CCC(=O)O)C(=O)N[C@@H](CCC(=O)O)C(=O)N[C@@H](CC(=O)O)C(=O)N[C@@H](C)C(=O)N[C@@H](CO)C(=O)N1CCC[C@H]1C(=O)N[C@@H](CCC(=O)O)C(=O)N[C@@H](CCC(=O)O)C(=O)N[C@@H](CC(C)C)C(=O)N[C@@H](CCC(N)=O)C(=O)N[C@@H](CCC(N)=O)C(=O)N[C@@H](Cc1ccc(O)cc1)C(=O)N[C@@H](Cc1ccc(O)cc1)C(=O)N[C@H](C(=O)N[C@@H](CCC(=O)O)C(=O)N[C@@H](CC(C)C)C(=O)N[C@@H](CCCNC(=N)N)C(=O)N[C@@H](Cc1c[nH]cn1)C(=O)N[C@@H](Cc1ccc(O)cc1)C(=O)N[C@@H](Cc1ccc(O)cc1)C(=O)N[C@@H](CC(N)=O)C(=O)N[C@@H](Cc1c[nH]c2ccccc12)C(=O)N[C@@H](CC(C)C)C(=O)N[C@H](C(=O)N[C@@H](CCCNC(=N)N)C(=O)N[C@@H](CCC(N)=O)C(=O)N[C@@H](CCCNC(=N)N)C(=O)N[C@@H](Cc1ccc(O)cc1)C(N)=O)[C@@H](C)O)C(C)C` [Compound 49, N{alpha-4}-(3-methylbutanoyl)-N{epsilon-7}-[2-(2-{2-[2-(2-{2-[(4S)-4-carboxy-4-(17-carboxyheptadecanamido)butanamido]ethoxy}ethoxy)acetamido]ethoxy}ethoxy)acetamido]-[4A,7K,9E,18Q,19Q,22V,23E,28Y,30W,31L]hPYY (4-36)]: the Ki in assay [1] was found to be 0.89 nM. Also, the “Acute Food Intake 24 h [% vehicle]” value with normal NMRI mice worked out at 60 % vehicle.

Turning to `CC(C)CC(=O)N[C@@H](C)C(=O)N1CCC[C@H]1C(=O)N[C@@H](CCC(=O)O)C(=O)N[C@@H](CCCCNC(=O)COCCOCCNC(=O)COCCOCCNC(=O)CC[C@H](NC(=O)CCCCCCCCCCCCCCCCC(=O)O)C(=O)O)C(=O)N1CCC[C@H]1C(=O)N[C@@H](CCC(=O)O)C(=O)N[C@@H](CCC(=O)O)C(=O)N[C@@H](CC(=O)O)C(=O)N[C@@H](C)C(=O)N[C@@H](CO)C(=O)N1CCC[C@H]1C(=O)N[C@@H](CCC(=O)O)C(=O)N[C@@H](CCC(=O)O)C(=O)N[C@@H](CC(C)C)C(=O)N[C@@H](CCC(N)=O)C(=O)N[C@@H](CCCCN)C(=O)N[C@@H](Cc1ccc(O)cc1)C(=O)N[C@@H](Cc1ccc(O)cc1)C(=O)N[C@H](C(=O)N[C@@H](CO)C(=O)N[C@@H](CC(C)C)C(=O)N[C@@H](CCCNC(=N)N)C(=O)N[C@@H](Cc1c[nH]cn1)C(=O)N[C@@H](Cc1ccc(O)cc1)C(=O)N[C@@H](Cc1ccc(O)cc1)C(=O)N[C@@H](CC(N)=O)C(=O)N[C@@H](Cc1c[nH]c2ccccc12)C(=O)N[C@@H](CC(C)C)C(=O)N[C@H](C(=O)N[C@@H](CCCNC(=N)N)C(=O)N[C@@H](CCC(N)=O)C(=O)N[C@@H](CCCNC(=N)N)C(=O)N[C@@H](Cc1ccc(O)cc1)C(N)=O)[C@@H](C)O)C(C)C` [Compound 21, N{alpha-4}-(3-methylbutanoyl)-N{epsilon-7}-[2-(2-{2-[2-(2-{2-[(4S)-4-carboxy-4-(17-carboxyheptadecanamido)butanamido]ethoxy}ethoxy)acetamido]ethoxy}ethoxy)acetamido]-[4A,7K,9E,18Q,19K,22V,28Y,30W,31L]hPYY (4-36)], the inhibition constant (Ki) in assay [1] stood at 1.52 nM. The “Acute Food Intake 24 h [% vehicle]” value with normal NMRI mice turned out to be 89 % vehicle.

As to `CC(C)CC(=O)N[C@@H](C)C(=O)N1CCC[C@H]1C(=O)N[C@@H](CCC(=O)O)C(=O)N[C@@H](CCCCNC(=O)COCCOCCNC(=O)COCCOCCNC(=O)CC[C@H](NC(=O)CCCCCCCCCCCCCCCCC(=O)O)C(=O)O)C(=O)N1CCC[C@H]1C(=O)N[C@@H](CCC(=O)O)C(=O)N[C@@H](C)C(=O)N[C@@H](CC(=O)O)C(=O)N[C@@H](C)C(=O)N[C@@H](CCC(=O)O)C(=O)N1CCC[C@H]1C(=O)N[C@@H](CCC(=O)O)C(=O)N[C@@H](CCC(=O)O)C(=O)N[C@@H](CC(C)C)C(=O)N[C@@H](CCC(N)=O)C(=O)N[C@@H](CCCNC(=N)N)C(=O)N[C@@H](Cc1ccc(O)cc1)C(=O)N[C@@H](Cc1ccc(O)cc1)C(=O)N[C@H](C(=O)N[C@@H](CO)C(=O)N[C@@H](CC(C)C)C(=O)N[C@@H](CCCNC(=N)N)C(=O)N[C@@H](Cc1c[nH]cn1)C(=O)N[C@@H](Cc1ccc(O)cc1)C(=O)N[C@@H](Cc1ccc(O)cc1)C(=O)N[C@@H](CC(N)=O)C(=O)N[C@@H](Cc1c[nH]c2ccccc12)C(=O)N[C@@H](CC(C)C)C(=O)N[C@H](C(=O)N[C@@H](CCCNC(=N)N)C(=O)N[C@@H](CCC(N)=O)C(=O)N[C@@H](CCCNC(=N)N)C(=O)N[C@@H](Cc1ccc(O)cc1)C(N)=O)[C@@H](C)O)C(C)C` [Compound 56, N{alpha-4}-(3-methylbutanoyl)-N{epsilon-7}-[2-(2-{2-[2-(2-{2-[(4S)-4-carboxy-4-(17-carboxyheptadecanamido)butanamido]ethoxy}ethoxy)acetamido]ethoxy}ethoxy)acetamido]-[4A,7K,9E,10A,13E,18Q,22V,28Y,30W,31L]hPYY (4-36)], the inhibition constant (Ki) in assay [1] worked out at 1.26 nM. Further, the “Acute Food Intake 24 h [% vehicle]” value in the assay with normal NMRI mice was determined as 53 % vehicle.
